Test results reported in the NIST ThermoML archive (doi:10.1016/j.tca.2011.08.021).
“And” between values parts separate entries of the source, which are not always exact repeats. Identical values can stand only once. ± gives the expanded uncertainty stated by the source.

Assays:
[1] = molar heat capacity at constant pressure; conditions: 101.33 kPa, Crystal, Small sample (50 mg) DSC
[2] = 393 K; 101.33 kPa; Crystal; X-ray diffraction

[Nd+3].[Nd+3].[O-2].[O-2].[O-2].[O-2].[O-2].[O-2].[O-2].[Zr+4].[Zr+4] [dineodymium(III) dizirconium(IV) oxide]
[1]
Conditions	molar heat capacity at constant pressure
293 K	236.67 ± 4.7 J/K/mol
303 K	238.41 ± 4.8 J/K/mol
313 K	240.75 ± 4.8 J/K/mol
573 K	275.35 ± 5.5 J/K/mol
623 K	280.65 ± 5.6 J/K/mol
673 K	284.79 ± 5.7 J/K/mol
723 K	288.11 ± 5.8 J/K/mol
773 K	290.8 ± 5.8 J/K/mol
823 K	293.01 ± 5.9 J/K/mol
873 K	294.85 ± 5.9 J/K/mol
923 K	296.39 ± 5.9 J/K/mol
973 K	297.7 ± 6 J/K/mol
1023 K	298.83 ± 6 J/K/mol
1073 K	299.79 ± 6 J/K/mol
1123 K	300.63 ± 6 J/K/mol and 302 ± 6 J/K/mol
1173 K	301.36 ± 6 J/K/mol
1273 K	302.57 ± 6.1 J/K/mol
1323 K	303.07 ± 6.1 J/K/mol
1373 K	303.52 ± 6.1 J/K/mol

Conditions	mass density [kg/m3]
[2]	6411 ± 44
